For assay [1], the target named is Protein kinase C theta type (Homo sapiens) (UniProt Q04759). As to conditions: Compound concentration 1000.0 nM.
Assay [2] in a line: GPCRScan assay: inhibition of GABA/PBR. Set-up: species or system Rattus norvegicus; radioligand conc. used [nm] 0.3 – 2.0, parental cells brain tissue.
Another assay deals with A549. Briefly: A549 cell line Proliferation assay. The class given is functional, Homo sapiens. The conditions noted are these: time 3 day.
The target in assay [3] is STE20-like serine/threonine-protein kinase (Homo sapiens) (UniProt Q9H2G2). Description: SLK(h) Eurofins kinase panel. The conditions noted are these: Compound concentration 1.0 uM.
Assay [4] deals with Maternal embryonic leucine zipper kinase (Homo sapiens) (UniProt Q14680). Description: MELK(h) Eurofins kinase panel. The conditions noted are these: Compound concentration 1.0 uM.
Assay [5] concerns the target Mitogen-activated protein kinase kinase kinase 20 (Homo sapiens) (UniProt Q9NYL2). Description: ZAK(h) Eurofins kinase panel. The conditions noted are these: Compound concentration 1.0 uM.
Assay [6] addresses T1, Serine/threonine-protein kinase TAO2 (Homo sapiens) (UniProt Q9UL54).
T1 sequence (whole entry): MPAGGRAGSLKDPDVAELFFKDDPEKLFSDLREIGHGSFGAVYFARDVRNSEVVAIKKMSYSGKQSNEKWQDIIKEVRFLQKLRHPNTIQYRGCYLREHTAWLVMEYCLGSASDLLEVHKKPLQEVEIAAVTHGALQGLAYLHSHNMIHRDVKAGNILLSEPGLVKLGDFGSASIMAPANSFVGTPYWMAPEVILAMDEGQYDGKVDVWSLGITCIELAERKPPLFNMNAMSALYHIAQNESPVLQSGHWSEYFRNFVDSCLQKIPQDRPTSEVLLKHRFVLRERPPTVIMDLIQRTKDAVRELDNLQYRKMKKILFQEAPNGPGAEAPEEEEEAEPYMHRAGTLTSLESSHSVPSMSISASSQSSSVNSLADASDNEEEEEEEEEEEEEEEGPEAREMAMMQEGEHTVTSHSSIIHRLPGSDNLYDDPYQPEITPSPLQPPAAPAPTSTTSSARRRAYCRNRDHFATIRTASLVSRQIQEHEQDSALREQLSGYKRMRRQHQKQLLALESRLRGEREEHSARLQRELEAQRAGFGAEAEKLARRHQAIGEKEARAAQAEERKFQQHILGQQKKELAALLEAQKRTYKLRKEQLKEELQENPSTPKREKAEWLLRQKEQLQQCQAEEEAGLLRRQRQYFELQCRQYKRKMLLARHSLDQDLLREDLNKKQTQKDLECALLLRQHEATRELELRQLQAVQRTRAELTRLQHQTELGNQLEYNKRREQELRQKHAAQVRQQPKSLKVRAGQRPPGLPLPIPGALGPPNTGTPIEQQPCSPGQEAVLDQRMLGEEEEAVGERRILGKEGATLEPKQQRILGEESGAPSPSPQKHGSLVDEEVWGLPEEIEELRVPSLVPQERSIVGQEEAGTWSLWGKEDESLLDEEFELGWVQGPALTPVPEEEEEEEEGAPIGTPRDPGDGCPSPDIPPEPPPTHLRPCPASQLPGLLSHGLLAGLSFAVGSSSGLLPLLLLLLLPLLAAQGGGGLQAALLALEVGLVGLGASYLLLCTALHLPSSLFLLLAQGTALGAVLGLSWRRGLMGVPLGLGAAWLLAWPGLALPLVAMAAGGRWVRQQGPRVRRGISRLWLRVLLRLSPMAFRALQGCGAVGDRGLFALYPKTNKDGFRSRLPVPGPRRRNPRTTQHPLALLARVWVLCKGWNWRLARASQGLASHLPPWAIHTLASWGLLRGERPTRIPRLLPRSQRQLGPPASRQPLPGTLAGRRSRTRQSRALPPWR
Briefly: TAO2(h) Eurofins kinase panel. The conditions noted are these: Compound concentration 1.0 uM.

The next assay has as its system NCI-H460. Description: NCI- H460 cell line Proliferation assay. The class given is functional, Homo sapiens. As to conditions: time 3 day.
For assay [7], the target named is Mitogen-activated protein kinase 14 (Homo sapiens) (UniProt Q16539). Briefly: SAPK2a(h) Eurofins kinase panel. As to conditions: Compound concentration 1.0 uM.
The next assay concerns Ramos. Description: Ramos cell line Proliferation assay. The class given is functional, Homo sapiens. The conditions noted are these: time 3 day.
The target of assay [8] is Interferon-induced, double-stranded RNA-activated protein kinase (Homo sapiens) (UniProt P19525). Description: PKR(h) Eurofins kinase panel. As to conditions: Compound concentration 1.0 uM.
For assay [9], the target named is Glycogen synthase kinase-3 alpha (Homo sapiens) (UniProt P49840). Description: GSK3α(h) Eurofins kinase panel. As to conditions: Compound concentration 1.0 uM.
The target of assay [10] is T2, Myosin-IIIb (Homo sapiens) (UniProt Q8WXR4).
T2 sequence (whole entry): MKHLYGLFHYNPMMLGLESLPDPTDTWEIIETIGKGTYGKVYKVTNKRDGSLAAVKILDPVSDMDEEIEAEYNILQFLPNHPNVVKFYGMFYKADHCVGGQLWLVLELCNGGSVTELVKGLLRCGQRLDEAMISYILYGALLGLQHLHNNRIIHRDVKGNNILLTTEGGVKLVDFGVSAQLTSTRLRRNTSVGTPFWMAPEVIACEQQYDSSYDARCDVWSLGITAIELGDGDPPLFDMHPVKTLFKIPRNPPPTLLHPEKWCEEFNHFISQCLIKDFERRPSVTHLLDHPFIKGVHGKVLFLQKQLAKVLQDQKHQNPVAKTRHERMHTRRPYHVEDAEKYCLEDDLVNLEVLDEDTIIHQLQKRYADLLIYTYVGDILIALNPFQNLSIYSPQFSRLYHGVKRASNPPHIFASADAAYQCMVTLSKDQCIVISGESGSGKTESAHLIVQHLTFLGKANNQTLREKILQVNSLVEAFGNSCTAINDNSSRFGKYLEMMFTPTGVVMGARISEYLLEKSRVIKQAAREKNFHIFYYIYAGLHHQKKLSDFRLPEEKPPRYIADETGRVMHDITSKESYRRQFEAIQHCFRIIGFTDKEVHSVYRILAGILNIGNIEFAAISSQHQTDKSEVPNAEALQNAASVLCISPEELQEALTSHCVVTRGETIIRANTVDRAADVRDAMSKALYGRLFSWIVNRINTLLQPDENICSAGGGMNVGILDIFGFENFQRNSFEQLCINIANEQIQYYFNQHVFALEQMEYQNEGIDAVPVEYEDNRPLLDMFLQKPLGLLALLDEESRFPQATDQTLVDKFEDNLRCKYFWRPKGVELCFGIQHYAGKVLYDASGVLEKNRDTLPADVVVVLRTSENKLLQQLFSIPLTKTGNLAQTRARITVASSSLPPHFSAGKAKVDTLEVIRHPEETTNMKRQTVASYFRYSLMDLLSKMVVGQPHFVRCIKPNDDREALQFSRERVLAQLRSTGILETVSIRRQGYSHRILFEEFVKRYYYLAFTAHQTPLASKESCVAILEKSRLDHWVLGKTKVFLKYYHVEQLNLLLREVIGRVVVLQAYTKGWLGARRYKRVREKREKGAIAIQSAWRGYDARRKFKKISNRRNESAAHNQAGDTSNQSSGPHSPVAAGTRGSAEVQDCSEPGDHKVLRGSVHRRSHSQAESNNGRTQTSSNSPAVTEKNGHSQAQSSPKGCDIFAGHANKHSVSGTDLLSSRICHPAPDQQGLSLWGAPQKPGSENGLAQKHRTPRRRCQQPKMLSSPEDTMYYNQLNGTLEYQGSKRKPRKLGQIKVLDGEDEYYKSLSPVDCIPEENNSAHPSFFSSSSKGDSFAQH
Description: MYO3B(h) Eurofins kinase panel. As to conditions: Compound concentration 1.0 uM.

Some results are limits rather than exact numbers.

What is called residual activity is the signal under treatment as a percentage of the control signal. Broadly, the Ki is the equilibrium dissociation constant of an inhibitor or competing ligand from its target. For orientation: pKi means the Ki on a negative log10 scale, so that one unit is a factor of ten.

Sequence of Protein kinase C theta type (Homo sapiens) (Q04759 whole entry, looked up): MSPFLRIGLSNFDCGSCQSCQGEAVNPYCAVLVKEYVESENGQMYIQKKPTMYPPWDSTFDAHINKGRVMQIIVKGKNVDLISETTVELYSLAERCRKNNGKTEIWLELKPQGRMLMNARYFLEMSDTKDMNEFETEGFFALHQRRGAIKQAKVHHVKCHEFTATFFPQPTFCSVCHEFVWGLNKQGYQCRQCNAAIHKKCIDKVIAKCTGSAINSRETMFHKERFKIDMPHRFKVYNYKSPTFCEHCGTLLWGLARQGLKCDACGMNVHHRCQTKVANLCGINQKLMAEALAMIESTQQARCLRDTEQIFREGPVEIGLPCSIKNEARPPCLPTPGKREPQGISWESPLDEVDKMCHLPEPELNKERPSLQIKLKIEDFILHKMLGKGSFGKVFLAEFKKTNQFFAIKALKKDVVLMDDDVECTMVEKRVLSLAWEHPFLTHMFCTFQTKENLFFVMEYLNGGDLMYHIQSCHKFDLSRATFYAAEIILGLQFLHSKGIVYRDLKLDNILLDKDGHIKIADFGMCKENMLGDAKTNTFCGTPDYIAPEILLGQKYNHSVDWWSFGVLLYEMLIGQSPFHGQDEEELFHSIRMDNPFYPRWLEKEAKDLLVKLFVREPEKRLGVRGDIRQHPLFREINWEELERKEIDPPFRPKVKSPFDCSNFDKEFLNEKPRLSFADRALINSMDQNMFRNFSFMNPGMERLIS
Sequence of Interferon-induced, double-stranded RNA-activated protein kinase (Homo sapiens) (P19525 whole entry): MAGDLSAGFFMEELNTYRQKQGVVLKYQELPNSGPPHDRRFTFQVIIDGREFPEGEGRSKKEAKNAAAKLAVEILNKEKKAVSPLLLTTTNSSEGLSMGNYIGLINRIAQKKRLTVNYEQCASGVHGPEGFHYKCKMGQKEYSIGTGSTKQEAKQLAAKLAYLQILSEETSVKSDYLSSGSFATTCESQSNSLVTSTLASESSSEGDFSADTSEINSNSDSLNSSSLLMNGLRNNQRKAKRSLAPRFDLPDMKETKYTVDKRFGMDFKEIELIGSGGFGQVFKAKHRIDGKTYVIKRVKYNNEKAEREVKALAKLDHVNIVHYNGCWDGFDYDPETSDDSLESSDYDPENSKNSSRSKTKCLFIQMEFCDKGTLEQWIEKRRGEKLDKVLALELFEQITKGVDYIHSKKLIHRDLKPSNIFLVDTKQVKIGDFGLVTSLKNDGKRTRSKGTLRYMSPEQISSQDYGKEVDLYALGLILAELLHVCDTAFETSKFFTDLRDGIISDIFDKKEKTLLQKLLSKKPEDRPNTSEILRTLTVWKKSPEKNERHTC
Sequence of STE20-like serine/threonine-protein kinase (Homo sapiens) (Q9H2G2 whole entry, looked up): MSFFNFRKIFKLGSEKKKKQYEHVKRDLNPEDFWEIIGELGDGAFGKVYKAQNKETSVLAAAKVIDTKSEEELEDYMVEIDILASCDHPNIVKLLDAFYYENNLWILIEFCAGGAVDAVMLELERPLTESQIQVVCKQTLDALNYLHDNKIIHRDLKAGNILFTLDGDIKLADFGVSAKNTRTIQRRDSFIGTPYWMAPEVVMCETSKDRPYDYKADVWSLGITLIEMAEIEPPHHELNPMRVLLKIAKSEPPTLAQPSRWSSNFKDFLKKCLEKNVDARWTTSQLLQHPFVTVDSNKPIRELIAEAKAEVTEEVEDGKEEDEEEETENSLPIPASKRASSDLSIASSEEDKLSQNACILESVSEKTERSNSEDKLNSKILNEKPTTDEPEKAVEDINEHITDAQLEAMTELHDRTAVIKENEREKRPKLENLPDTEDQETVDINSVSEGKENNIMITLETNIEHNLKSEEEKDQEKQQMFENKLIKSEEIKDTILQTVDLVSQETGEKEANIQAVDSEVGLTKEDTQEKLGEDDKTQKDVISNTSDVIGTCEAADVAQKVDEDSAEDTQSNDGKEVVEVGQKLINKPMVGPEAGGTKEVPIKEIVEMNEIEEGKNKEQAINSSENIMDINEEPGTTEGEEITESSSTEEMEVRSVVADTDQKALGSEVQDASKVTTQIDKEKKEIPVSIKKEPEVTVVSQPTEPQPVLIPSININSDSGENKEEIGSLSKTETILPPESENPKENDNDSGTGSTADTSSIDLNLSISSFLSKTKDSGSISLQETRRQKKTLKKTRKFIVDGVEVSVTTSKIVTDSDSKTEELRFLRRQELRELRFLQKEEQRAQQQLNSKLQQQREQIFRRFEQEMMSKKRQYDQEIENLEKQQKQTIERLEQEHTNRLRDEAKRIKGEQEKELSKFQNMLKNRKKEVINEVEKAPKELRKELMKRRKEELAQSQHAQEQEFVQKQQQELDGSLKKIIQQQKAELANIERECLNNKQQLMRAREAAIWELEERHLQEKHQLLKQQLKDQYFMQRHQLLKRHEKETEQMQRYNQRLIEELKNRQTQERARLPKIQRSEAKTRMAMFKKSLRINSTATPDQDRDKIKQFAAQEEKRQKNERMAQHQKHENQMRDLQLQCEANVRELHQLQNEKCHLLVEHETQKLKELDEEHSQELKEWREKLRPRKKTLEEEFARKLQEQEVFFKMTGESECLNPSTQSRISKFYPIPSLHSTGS
Sequence of Mitogen-activated protein kinase kinase kinase 20 (Homo sapiens) (Q9NYL2 2-800 limits assumed): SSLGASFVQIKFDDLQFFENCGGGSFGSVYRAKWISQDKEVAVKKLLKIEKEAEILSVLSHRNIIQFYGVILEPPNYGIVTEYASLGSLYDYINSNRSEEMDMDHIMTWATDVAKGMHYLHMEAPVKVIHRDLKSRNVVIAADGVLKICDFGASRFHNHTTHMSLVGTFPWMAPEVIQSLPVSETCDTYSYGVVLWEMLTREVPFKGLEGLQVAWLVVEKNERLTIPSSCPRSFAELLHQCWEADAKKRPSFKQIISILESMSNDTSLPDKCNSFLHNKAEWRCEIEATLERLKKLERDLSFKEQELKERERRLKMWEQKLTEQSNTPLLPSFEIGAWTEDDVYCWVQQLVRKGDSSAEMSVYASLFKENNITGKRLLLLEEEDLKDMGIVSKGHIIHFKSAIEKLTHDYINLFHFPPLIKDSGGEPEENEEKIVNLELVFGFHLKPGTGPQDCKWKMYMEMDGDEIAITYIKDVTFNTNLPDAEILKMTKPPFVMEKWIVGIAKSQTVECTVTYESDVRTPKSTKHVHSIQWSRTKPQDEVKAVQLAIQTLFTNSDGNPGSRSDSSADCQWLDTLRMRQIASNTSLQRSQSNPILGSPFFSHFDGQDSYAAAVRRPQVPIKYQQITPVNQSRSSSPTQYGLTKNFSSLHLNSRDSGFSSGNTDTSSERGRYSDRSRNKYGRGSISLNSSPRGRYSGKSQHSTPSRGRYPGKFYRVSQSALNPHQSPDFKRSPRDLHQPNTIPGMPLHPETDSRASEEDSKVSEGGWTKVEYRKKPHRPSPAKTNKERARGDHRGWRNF
Sequence of Mitogen-activated protein kinase 14 (Homo sapiens) (Q16539 whole entry): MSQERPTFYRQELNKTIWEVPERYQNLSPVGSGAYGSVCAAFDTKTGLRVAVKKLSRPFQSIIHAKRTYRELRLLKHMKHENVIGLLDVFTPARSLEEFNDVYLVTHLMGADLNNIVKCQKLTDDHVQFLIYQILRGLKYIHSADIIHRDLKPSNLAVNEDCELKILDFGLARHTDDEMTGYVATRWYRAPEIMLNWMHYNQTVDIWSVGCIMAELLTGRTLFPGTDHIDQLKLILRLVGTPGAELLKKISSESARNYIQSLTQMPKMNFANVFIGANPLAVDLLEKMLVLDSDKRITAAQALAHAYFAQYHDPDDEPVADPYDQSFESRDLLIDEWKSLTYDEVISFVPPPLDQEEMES
Sequence of Glycogen synthase kinase-3 alpha (Homo sapiens) (P49840 2-483 limits assumed): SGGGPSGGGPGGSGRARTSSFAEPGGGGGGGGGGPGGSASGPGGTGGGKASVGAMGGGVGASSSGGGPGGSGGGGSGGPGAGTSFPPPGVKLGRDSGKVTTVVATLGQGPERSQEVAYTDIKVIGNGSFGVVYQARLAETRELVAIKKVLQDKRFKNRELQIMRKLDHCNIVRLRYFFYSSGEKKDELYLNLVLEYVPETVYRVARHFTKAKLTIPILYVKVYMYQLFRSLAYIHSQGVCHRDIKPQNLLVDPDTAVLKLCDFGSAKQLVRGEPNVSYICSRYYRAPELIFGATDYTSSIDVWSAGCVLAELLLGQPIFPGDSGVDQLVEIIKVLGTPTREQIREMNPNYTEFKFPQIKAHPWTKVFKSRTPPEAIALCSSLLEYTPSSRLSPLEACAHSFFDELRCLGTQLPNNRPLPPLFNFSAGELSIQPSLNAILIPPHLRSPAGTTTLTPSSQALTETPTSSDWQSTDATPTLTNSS
Sequence of Maternal embryonic leucine zipper kinase (Homo sapiens) (Q14680 whole entry, looked up): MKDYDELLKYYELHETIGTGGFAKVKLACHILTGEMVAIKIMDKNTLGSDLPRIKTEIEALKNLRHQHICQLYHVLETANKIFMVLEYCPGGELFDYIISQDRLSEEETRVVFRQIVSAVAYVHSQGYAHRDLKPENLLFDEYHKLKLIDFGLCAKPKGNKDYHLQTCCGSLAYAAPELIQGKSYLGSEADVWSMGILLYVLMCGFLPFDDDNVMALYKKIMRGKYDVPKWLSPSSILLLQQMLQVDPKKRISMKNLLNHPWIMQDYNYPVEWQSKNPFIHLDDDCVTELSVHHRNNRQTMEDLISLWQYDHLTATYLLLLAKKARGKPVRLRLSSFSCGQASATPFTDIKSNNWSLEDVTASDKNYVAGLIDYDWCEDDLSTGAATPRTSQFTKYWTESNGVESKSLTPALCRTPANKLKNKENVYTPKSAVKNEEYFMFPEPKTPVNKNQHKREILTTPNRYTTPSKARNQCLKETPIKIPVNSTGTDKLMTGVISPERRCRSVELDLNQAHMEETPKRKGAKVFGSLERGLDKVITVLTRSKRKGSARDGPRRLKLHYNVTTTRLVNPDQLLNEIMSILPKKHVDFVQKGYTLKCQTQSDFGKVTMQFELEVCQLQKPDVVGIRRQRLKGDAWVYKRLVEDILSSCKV

With `CC1=C(C#N)C(c2ccc3c(c2)c(NC(=O)c2ccccc2C)nn3C)C(C#N)=C(C)N1` [BAY-974], the residual activity in [1] is 55%. Also, in assay [2], the Ki came out at 0.021 µM and the pKi was 7.69.

In the case of `CCc1ccccc1C(=O)Nc1n[nH]c2c(C)c(F)c(C3C(C#N)=C(C)N(C)C(C)=C3C#N)cc12` [BAY-3827], the “Cell Proliferation IC50” value in the assay on A549 was 25.8 µM; in the assay on NCI-H460, more than 33 µM; in the assay with Ramos it was 12.1 µM. For the same compound, the % residual kinase activity in assay [3] is 101%; in [4], 39%; in [5], 99%; in assay [6], 104%; in assay [7], 101%; in assay [8], 96%. Moreover, the results for the % residual kinase activity in assay [9] and in assay [10] were 83% and 24%, respectively.

(Values after ChEMBL document CHEMBL4507319 (2021).)
